From US4663310A, “Renin inhibitors containing 2-substituted statine” (Merck & Co., Inc., priority 1984, dated 1987)
Starred links: 1 amine or outer side, 2 acyl side, 3 side chain; linkers in the order of their positions; H or OH if unused. Non-standard residues stand in square brackets, D forms with d. Residues, ends and D or L forms follow the SMILES beside them. *: point of attachment. X1 = CC(C)CC(C(=O)[*:2])[C@H](O)[C@H](CC(C)C)N[*:1]; Isobutyryl = CC(C)C(=O)*

Legend:
[1] = test system: nephrectomized rats; details: after the injection of hog renin into nephrectomized rats; Gross et al.; cited from earlier work
[2] = test system: acid proteases; details: cited from earlier work
[3] = target: T1, dog plasma renin (Canis lupus familiaris, UniProt Q6DYE7); test: Dog plasma renin assay; type: biochemical; details: for IC50: read-out: Renin Inhibition Dog Plasma I50
T1 construct: Further assays measured human plasma renin and dog plasma renin; from tissue; host or cells: dog plasma
T1 sequence (Q6DYE7 66-403): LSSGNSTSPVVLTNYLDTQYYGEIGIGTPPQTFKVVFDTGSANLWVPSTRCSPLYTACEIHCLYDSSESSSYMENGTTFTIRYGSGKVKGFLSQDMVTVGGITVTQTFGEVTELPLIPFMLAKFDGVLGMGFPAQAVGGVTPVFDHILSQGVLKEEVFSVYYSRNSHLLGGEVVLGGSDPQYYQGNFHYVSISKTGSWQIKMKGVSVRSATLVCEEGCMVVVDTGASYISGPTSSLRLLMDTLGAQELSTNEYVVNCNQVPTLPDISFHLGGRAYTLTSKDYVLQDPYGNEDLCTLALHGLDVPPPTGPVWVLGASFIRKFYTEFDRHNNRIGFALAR
Description: (§1) Assays were carried out in order to determine the inhibitory potency of the peptides of the present invention. One assay measured the inhibition of hog kidney renin, and was in accordance with the procedure described in Rich et al., J. Med. Chem. 23: 27, 1980, except that a pH of 7.3 was used. Another assay measured the inhibition of human kidney renin purified as described in Bangham, D. R., Robertson, I., Robinson, J. I. S., Robinson, C. J., and Tree, M., Clinical Science and Molecular Medicine, 48 (Supp. 2): 136s-159s (1975), and further purified by affinity chromatography on pepstatin-aminohexyl-Sepharase as described in Poe, M., Wu., J. K., Florance, J. R., Radkey, J. A., Bennett, C. D., and Hoogsteen, K., J. Biol. Chem. 258: 2209-2216 (1983). The assay was also in accordance with Poe et al. cited above. Further assays measured human plasma renin and dog plasma renin in accordance with procedures described in Boger et al., Nature, 303: 81-84 (1983).

[4] = target: T2, human plasma renin (Homo sapiens, UniProt P00797); test: Human plasma renin assay; type: biochemical; details: read-out: Renin Inhibition Human Plasma I50
T2 construct: Further assays measured human plasma renin and dog plasma renin; from tissue; host or cells: human plasma
T2 sequence (P00797 67-406): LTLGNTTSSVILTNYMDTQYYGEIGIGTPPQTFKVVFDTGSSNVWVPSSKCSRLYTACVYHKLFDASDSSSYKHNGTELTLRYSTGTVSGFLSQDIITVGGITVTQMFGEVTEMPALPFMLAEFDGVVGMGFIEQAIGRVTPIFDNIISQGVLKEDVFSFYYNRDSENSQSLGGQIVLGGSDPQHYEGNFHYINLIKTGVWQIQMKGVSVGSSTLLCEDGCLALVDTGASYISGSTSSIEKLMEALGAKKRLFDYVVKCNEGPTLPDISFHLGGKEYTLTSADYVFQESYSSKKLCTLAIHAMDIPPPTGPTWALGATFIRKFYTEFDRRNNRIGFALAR
Description: as §1

[5] = target: T3, human kidney renin (Homo sapiens, UniProt P00797); test: Inhibition of purified human kidney renin; type: biochemical; details: dissociation constant of the inhibited enzyme inhibitor complex
T3 construct: human kidney renin purified as described in Bangham; from tissue; host or cells: human kidney
T3 sequence (P00797 67-406): T2 sequence (P00797 67-406)
Description: as §1
Results expressed as KI values refer to the dissociation constant of the inhibited enzyme inhibitor complex. This KI value was obatined as described above. Pepstatin was used as an active control.

[6] = test system: hog kidney renin; test: Inhibition of hog kidney renin; type: biochemical; details: pH 7.3; read-out: Renin Inhibition Hog Kidney I50
Description: as §1

IC50 [3] | IC50 [4] | Ki [5] | Molecule | other results
– | – | – | Pepstatin | blood pressure in vivo [1]: reduce blood pressure; inhibition of other acid proteases (selectivity) [2]: inhibition of a variety of other acid proteases in addition to renin
3.5 nM | 8.2 nM | 9.3 nM | CC(C)C[C@H](NC(=O)[C@H](CC(C)C)[C@H](O)[C@H](Cc1ccccc1)NC(=O)[C@H](Cc1c[nH]cn1)NC(=O)[C@H](Cc1ccccc1)NC(=O)OC(C)(C)C)C(=O)NCc1ccccc1 [BOCPheHis(2- -i-Bu)AHPPALeu, tert-Butyloxycarbonyl-L-phenylalanyl-L-histidyl-4(S)-amino-3(S)-hydroxy-2(R)-iso-butyl-5-phenylpentanoyl-L-leucyl-benzylamide] | –
6.2 nM | 65 nM | 4.4 nM | CC(C)CC[C@@H](C(=O)N[C@@H](CC(C)C)C(=O)NCc1ccccc1)[C@H](O)[C@H](Cc1ccccc1)NC(=O)[C@H](Cc1c[nH]cn1)NC(=O)[C@H](Cc1ccccc1)NC(=O)OC(C)(C)C [BOCPheHis(2- -i-Pent)AHPPALeu] | –
– | – | – | CC(C)CC(C(=O)N[C@@H](CC(C)C)C(=O)N[C@@H](Cc1ccccc1)C(N)=O)[C@H](O)[C@H](CC(C)C)NC(=O)[C@H](Cc1ccccc1)NC(=O)[C@H](Cc1ccccc1)NC(=O)[C@@H]1CCCN1C(=O)[C@H](Cc1c[nH]cn1)NC(=O)C(C)C (some centres unmarked) [IBUHisProPhePhe(2- -i-Bu)StaLeuPheNH2] (Isobutyryl-HPFF[X1]LF-NH2) | IC50 [6]: 22 nM
– | – | 10 nM | CC(C)C[C@H](NC(=O)[C@H](CC(C)C)[C@H](O)[C@H](CC(C)C)NC(=O)[C@H](Cc1c[nH]cn1)NC(=O)[C@H](Cc1ccccc1)NC(=O)OC(C)(C)C)C(=O)NCc1ccccc1 [BOCPheHis(2- -i-Bu)StaLeu] | Renin Inhibition Dog Plasma % I ([3]; I 10^-6): 0%
